Results reported in US12622918B2, “Formulations and dosages for administering a compound that inhibits MCL1 protein” (Amgen Inc., priority 2019, dated 2026).

Test system: OPM2-Luc orthotopic tumors
Assay: OPM2-Luc multiple myeloma orthotopic model, AMG 176 plus carfilzomib
Assay type: in vivo
Details: carfilzomib 3 mg/kg IV twice weekly
Procedure: On day 0, female NSG mice were injected IV with 1×10^6 OPM2-Luc human OPM2-Luc multiple myeloma tumor cells transfected with the firefly luciferase gene.

CC(C)C[C@H](NC(=O)[C@H](CCc1ccccc1)NC(=O)CN1CCOCC1)C(=O)N[C@@H](Cc1ccccc1)C(=O)N[C@@H](CC(C)C)C(=O)[C@@]1(C)CO1 [carfilzomib]
TGI (tumor burden) (AMG 176 20 mg/kg orally once daily, day 4 until day 20, female NSG mice): 82% | tolerability (NSG mice): Unscheduled deaths
